Source: patent US20220347118A1, “STABLE MEDICINAL CANNABIDIOL COMPOSITIONS” (CARDIOL THERAPEUTICS INC., priority 2019, published 2022)

Legend:
CB2 receptor = CB2 receptor (Homo sapiens, UniProt P34972); conditions: Proc Natl Acad Sci USA. 2008; 105(26):9099-104; cited from earlier work
Solubility of CBD in BCP = assay type: physicochemical; conditions: in 1 mL of BCP and its derivatives
Method: For example, at least 300 mg of CBD can be dissolved in 1 mL of BCP and its derivatives. The enhanced stability of the CBD provides a composition with an acceptable shelf life and which can provide consistency in dosing and enhanced safety.

Chain of CB2 receptor (P34972 whole entry): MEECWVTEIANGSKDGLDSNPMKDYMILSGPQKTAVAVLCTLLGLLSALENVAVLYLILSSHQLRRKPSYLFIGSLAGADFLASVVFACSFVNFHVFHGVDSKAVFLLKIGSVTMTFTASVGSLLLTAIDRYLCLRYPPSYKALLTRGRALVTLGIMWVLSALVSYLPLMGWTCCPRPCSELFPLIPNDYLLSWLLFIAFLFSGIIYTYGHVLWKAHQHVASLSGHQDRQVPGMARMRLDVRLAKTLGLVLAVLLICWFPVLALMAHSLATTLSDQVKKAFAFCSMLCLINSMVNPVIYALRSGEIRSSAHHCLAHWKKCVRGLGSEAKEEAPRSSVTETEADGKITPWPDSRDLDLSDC

C=C1CC/C=C(\C)CC[C@@H]2[C@@H]1CC2(C)C [β-caryophyllene, trans-(1R,9S)-8-Methylene-4,11,11-trimethylbicyclo[7.2.0]undec-4-ene]
CB2 receptor binding / functional activity (CB2 receptor): selectively binds to the CB2 receptor and is a functional CB2 agonist

C=C(C)[C@@H]1CCC(C)=C[C@H]1c1c(O)cc(CCCCC)cc1O [CBD, cannabidiol]
amount of CBD that can be dissolved in BCP (Solubility of CBD in BCP): at least 300 mg
